Assay results taken from US20260248882A1, “USE OF ANNEXIN A5 IN HAIR GROWTH, HAIR NURTURING, HAIR CARE, HAIR LOSS PREVENTION, AND HAIR LOSS TREATMENT, AND RELATED PRODUCTS AND PHARMACEUTICAL COMPOSITIONS” (SHANGHAI CELLEAF BIOTECHNOLOGY CO., LTD, priority 2023, published 2026).

Columns and labels:
[1] = system: Ki67 (cell proliferation marker); assay: Ki67 immunohistochemical staining of paraffin skin sections; format: in vivo, mouse; settings: DHT model mice after Annexin A5 treatment; FIG. 3
Description: (§1) Experimental animals: C57BL/6 male mice, 5-7 weeks old, weighing around 20 g were housed in a 12 hour light/12 hour dark environment, with free access to food and water. The experiment set up control group (CTRL); model group (DHT); A5-Low group (treated with Annexin A5, injected once every three days); and A5-High group (treated with Annexin A5, injected once a day). Each group consists of 6 mice.
(§2) Modeling and administration: Dihydrotestosterone (DHT) was used to induce the formation of the mouse androgenetic hair loss model. In addition to the control group, the other three groups of mice received subcutaneous injection of DHT solution (5 mg/mL) at the neck, 0.01 mL for each, for a total of 2 weeks. The control group was injected with an equal volume of physiological saline. After 2 weeks, all mice were shaved and their back hair was removed using a shaving knife. Then hair removal cream was used to further remove residual hair from the shaved area of the mice. After hair removal, both the control group and the model group were injected daily with […] of PBS in the hair removal area, divided into 10 injection points, with 20 μL per point. The A5-Low group received Annexin A5 treatment once every three days, while the A5-High group received Annexin A5 treatment once a day. […] The status of hair growth on the back of mice was observed every day and recorded by taking photos. […]

[2] = system: transforming growth factor β1 (TGF β-1); assay: Western Blot of TGF-β1 expression in isolated dermal papillae; format: in vivo, mouse; settings: DHT model mice, A5-Low/A5 High groups, FIG. 4
Description: as §1
(§3) Modeling and administration: Dihydrotestosterone (DHT) was used to induce the formation of the mouse androgenetic hair loss model. In addition to the control group, the other three groups of mice received subcutaneous injection of DHT solution (5 mg/mL) at the neck, 0.01 mL for each, for a total of 2 weeks. The control group was injected with an equal volume of physiological saline. After 2 weeks, all mice were shaved and their back hair was removed using a shaving knife. […] The status of hair growth on the back of mice was observed every day and recorded by taking photos. […]
(§4) Sample Treatment: After euthanizing the mice, 1 cm^2 skin tissue was collected, and the hair on the skin surface was removed with a scissors as much as possible. […] The supernatant was collected by high-speed centrifugation, the protein concentration was determined using BCA method, and protein samples were prepared according to Western Blot requirements. […]

[3] = system: mouse androgenetic hair loss model; assay: Histological HE staining analysis of skin sections; format: in vivo; settings: DHT model mice treated with Annexin A5 for 2 weeks, FIG. 2
Description: as §1
Modeling and administration: Dihydrotestosterone (DHT) was used to induce the formation of the mouse androgenetic hair loss model. In addition to the control group, the other three groups of mice received subcutaneous injection of DHT solution (5 mg/mL) at the neck, 0.01 mL for each, for a total of 2 weeks. The control group was injected with an equal volume of physiological saline. After 2 weeks, all mice were shaved and their back hair was removed using a shaving knife. Then hair removal cream was used to further remove residual hair from the shaved area of the mice. After hair removal, both the control group and the model group were injected daily with […] of PBS in the hair removal area, divided into 10 injection points, with 20 μL per point. The A5-Low group received Annexin A5 treatment once every three days, while the A5-High group received Annexin A5 treatment once a day. The injection method was subcutaneous injection at 10 points in the hair removal area, with 20 μL of Annexin A5 at a concentration of 50 μg/mL injected at each point. The status of hair growth on the back of mice was observed every day and recorded by taking photos. Samples were collected after 16 days.
Tissue sampling: After drug treatment, mice were euthanized by cervical dislocation. […]
Sections were taken for xylene dewaxing and gradient ethanol hydration, and then hematoxylin and eosin staining was performed. […] The next day, an optical microscope was used to observe and record, and the number of hair follicles was statistical analyzed.

[4] = system: CD31 (vascular angiogenesis marker); assay: CD31 immunohistochemical staining of paraffin skin sections; format: in vivo, mouse; settings: DHT model mice after Annexin A5 treatment; FIG. 3
Description: as §1, §2

[5] = system: mouse androgenetic hair loss model; assay: Hair growth observation in mouse androgenetic hair loss model (DHT-induced); format: in vivo; settings: C57BL/6 male mice, depilated back, FIG. 1
Description: as §1, §2

[6] = system: androgen receptor (AR); assay: Western Blot of androgen receptor expression in isolated dermal papillae; format: in vivo, mouse; settings: DHT model mice, A5-Low/A5 High groups, FIG. 4
Description: as §1, §3, §4

Annexin A5: calcium phospholipid binding protein composed of a single polypeptide chain of 319 amino acids
proliferation and survival ability of cells in the hair follicles (Ki67) [1]: improved | TGF-β1 expression in dermal papillae [2]: significant inhibition | dermal thickness [3]: did not affect | follicle size [3]: did not affect | number of hair follicle dermal papillae [3]: did not affect | number of capillaries around the dermal papillae (CD31) [4]: increased | entry into anagen phase (skin turning black) ([5]; A5-Low and A5-High groups): entered the anagen phase earlier | hair growth ability ([5]; subcutaneous Annexin A5 50 μg/mL, 10 points x 20 μL, once every three days or once a day, observed 16 days): significantly enhanced hair growth ability | AR expression in dermal papillae [6]: significant inhibition
